Data published in PubChem BioAssay (NCI).
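Results reflect a 48-hour exposure of cells in 96-well plates to compound at five concentrations. Here, GI50 denotes the concentration required for 50% inhibition of growth. TGI marks complete inhibition of growth.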

Columns and labels:
Assay in all cases: NCI anticancer screen, dose series, 48 h
[1] = test system: IGROV1 ovarian
[2] = test system: KM12 colon
[3] = test system: NCI-H522 lung
[4] = test system: OVCAR-3 ovarian
[5] = test system: SF-539 CNS
[6] = test system: T-47D breast
[7] = test system: TK-10 renal
[8] = test system: U251 CNS
[9] = test system: BT-549 breast
[10] = test system: RXF 393 renal

## O=C1CC2c3ccccc3CCC2c2ccccc21 (stereo not given)
[1]
  TGI: 86.6 µM
[2]
  TGI: 26.8 µM
[3]
  TGI: 46.7 µM
[4]
  TGI: 41.8 µM
[5]
  TGI: 53.3 µM
[6]
  TGI: > 100 µM
[7]
  TGI: > 100 µM
[8]
  TGI: > 100 µM

## C=C1CCC(CC[C@@H]2CC[C@]3(OC2)O[C@@]2(O)CC[C@]3(C)OC2(C)C)C(C)(C)[C@H]1C/C=C1/C(=O)OC[C@@H]1O (stereo not given in full)
[9]
  TGI: 4.76 µM
[1]
  TGI: 11.6 µM
[2]
  TGI: 6.35 µM
[3]
  TGI: 3.5 µM
[4]
  TGI: 7.41 µM
[10]
  TGI: 4.88 µM
[5]
  TGI: 9.18 µM
[6]
  TGI: 6.15 µM
[7]
  TGI: 11.5 µM
[8]
  TGI: 6.29 µM

## CCn1c(SCc2ccc(C)cc2)nnc1-c1nn(-c2ccc(Cl)cc2Cl)c(-c2ccc(Cl)cc2)c1C
[9]
  GI50: 1.79 µM
  TGI: 5.75 µM
[1]
  GI50: 2.62 µM
  TGI: 15.4 µM
[2]
  GI50: 1.04 µM
  TGI: 6.31 µM
[3]
  GI50: 1.35 µM
  TGI: 5.2 µM
[4]
  GI50: 1.98 µM
  TGI: 11.6 µM
[10]
  GI50: 2.69 µM
  TGI: 10.9 µM
[5]
  GI50: 3.02 µM
  TGI: 11.8 µM
[6]
  GI50: 0.428 µM
  TGI: 10.1 µM
[7]
  GI50: 2.61 µM
  TGI: 10.9 µM
[8]
  GI50: 0.925 µM
  TGI: 11.8 µM

## COc1cc(C(=O)c2cc(C)c3[nH]c4ccc(C)cc4c3c2C)cc(OC)c1OC
[9]
  GI50: < 0.01 µM
  TGI: 2.45 µM
[1]
  GI50: < 0.01 µM
[2]
  GI50: < 0.01 µM
  TGI: > 21.6 µM
[3]
  GI50: < 0.01 µM
[4]
  GI50: < 0.01 µM
[10]
  GI50: < 0.01 µM
  TGI: 4.84 µM
[5]
  GI50: < 0.01 µM
  TGI: < 0.01 µM
[6]
  GI50: 0.287 µM
  TGI: > 100 µM
[7]
  GI50: 3.37 µM
  TGI: > 100 µM
[8]
  GI50: < 0.01 µM
  TGI: > 27.1 µM

## O=C(O)C1C(Br)(c2ccccc2)C1(Br)c1ccccc1 (stereo not given)
[9]
  TGI: 49.5 µM
[1]
  TGI: > 100 µM
[2]
  TGI: > 100 µM
[3]
  TGI: 43.9 µM
[4]
  TGI: > 100 µM
[10]
  TGI: 41.7 µM
[5]
  TGI: > 100 µM
[6]
  TGI: > 100 µM
[7]
  TGI: > 100 µM
[8]
  TGI: > 100 µM

## CN(C)C(=O)[C@H](O)[C@H](Cc1ccccc1)NC(=O)c1cc2cc(Cl)ccc2[nH]1
[9]
  GI50: 22.8 µM
  TGI: 72.1 µM
[1]
  GI50: 22.4 µM
  TGI: 69.1 µM
[2]
  GI50: 27.2 µM
  TGI: > 87.7 µM
[3]
  GI50: 21.5 µM
  TGI: 68.7 µM
[4]
  GI50: 18.5 µM
  TGI: 43.5 µM
[10]
  GI50: 20 µM
  TGI: 62.9 µM
[5]
  GI50: 20.2 µM
  TGI: 43.3 µM
[6]
  GI50: 25.1 µM
  TGI: > 96.7 µM
[7]
  GI50: 24.3 µM
  TGI: 67 µM
[8]
  GI50: 17.9 µM
  TGI: 42.5 µM

## ClCC[N+]12CC[N+](CCCl)(CC1)C2
[9]
  TGI: > 100 µM
[1]
  TGI: > 100 µM
[2]
  TGI: > 100 µM
[3]
  TGI: > 100 µM
[4]
  TGI: > 100 µM
[10]
  TGI: > 100 µM
[5]
  TGI: > 100 µM
[6]
  TGI: > 100 µM
[7]
  TGI: > 100 µM
[8]
  TGI: > 100 µM

## O=c1c2ccccc2c(=O)c2c1[nH]c1c(-c3ccccc3)c(-c3ccccc3)c(=O)c12
[9]
  GI50: 2.09 µM
  TGI: 4.69 µM
[1]
  GI50: 3.39 µM
  TGI: 20.4 µM
[2]
  GI50: 2.3 µM
  TGI: 6.34 µM
[3]
  GI50: 2.19 µM
  TGI: 5.73 µM
[4]
  GI50: 1.92 µM
  TGI: 4.48 µM
[10]
  GI50: 1.54 µM
  TGI: 5.02 µM
[5]
  GI50: 1.85 µM
  TGI: 3.74 µM
[6]
  GI50: 1.8 µM
  TGI: 7.76 µM
[7]
  GI50: 4.84 µM
  TGI: 52.3 µM
[8]
  GI50: 2.27 µM
  TGI: 4.9 µM
